From patent US8158142B2, “3-deazaadenosine prevents atherosclerosis and graft vasculopathy” (Kerckhoff-Klinik Gesellschaft mit beschrankter Haftung, priority 1998, dated 2012)

Key:
monocyte = settings: cited from earlier work
Body weight development = type: in vivo, mouse; settings: day 65, atherogenic diet + c^3Ado 10 mg/kg/day oral, mean ± SEM, n = 9
Description: (§1) Six to eight week old female C57BL/J6 mice (Charles Rivers Wiga, Sulzfeld, Germany) with an average body weight of 20 g were randomly divided into three groups:
(§2) The average intake of food for each animal was 5.2 g per day. Food and water were replenished every 2 days, and the volumes consumed for each cage were recorded. The mice were kept in accordance with standard animal care requirements and were maintained on a 12 hour light-dark cycle with autoclaved water in a temperature-controlled environment. All animals remained healthy during the experimental period. After 9 weeks, mice were sacrificed by inhalation of trichlormethane. The heart and the ascending aorta were removed and rinsed with PBS DULBECCO'S (Life Technologies, Paisley, Scotland). The lower half of the heart was transected along a line between the tips of the atria to obtain a base for the emerging ascending aorta. This procedure allowed an exact vertical embedding of the aorta in Tissue-Tek (Miles, USA) for optimal plane cross sections. The sections were frozen in liquid nitrogen and stored at −80° C. until further study.

[1] = system: Lewis rats which received heterotopically transplanted hearts from Fisher rats; assay: Graft vasculopathy / graft atherosclerosis (intimal thickening) in transplanted hearts; type: in vivo, rat; settings: after 120 days
Description: (§3) 3-Deazaadenosine was orally administered by mixing into the regular food at a final concentration of 0.04 mg/g, according to a daily oral dose of 10 mg/kg c3Ado per animal, in addition to or in absence of cyclosporine (0.2 mg/kg body weight) to Lewis rats which received heterotopically transplanted hearts from Fisher rats. For a third control group, only cyclosporine was administered daily to the other allograft recipients. All animals got a standard diet over the whole study period. Allografts were harvested on day 120, cardiac graft beat was assessed by daily palpation, and the complete cessation of the graft beat was interpreted as rejection. All of the rats accepted cardiac allografts without any further treatment for the duration of observation.
Every complete cross-section of the traceable arteries was calculated. The sections were reviewed by two independent reviewers masked to the status of the slides, and histologic changes were assessed semiquantitatively. The changes of intimal thickening were scored as mild (score 1, <25% occlusion of the lumen) when the intima was readily discernible, or as moderate (score 2, 25-50% occlusion) to severe (score 3, >50% occlusion).

female C57BL/J6 mice = assay: Quantification of atherosclerotic lesions and neointimal proliferation in the ascending aorta of mice on atherogenic diet; type: in vivo, mouse; settings: for NI/M Ratio (neointimal to medial area ratio): mean ± SEM, 3 sections per animal
From the text: as §1
Group 1: control animals (n=9) maintained on a normal mouse diet (Altromin, Standard Diet; Lage, Germany).
Group 2: nine animals receiving an atherogenic diet based on normal mouse chow but differing in total fat content (10% vs. 5%), protein content (15.4% vs. 22%) and cholesterol content (1% vs. 0%). The total energy was 3790 vs. 3000 kcal/kg.
Group 3: nine animals on an atherogenic diet as described above, and 3-deazaadenosine (c^3Ado) (Southern Research, Birmingham, Ala., USA) mixed into the food at a final concentration of 0.04 mg/g, according to a daily oral dose of 10 mg/kg c^3Ado per animal.
as §2
A modification of the method described by Paigen at el. (29) was used to evaluate aortic lesion formation. The frozen tissue blocks were placed on a cryotome, and 8 μm serial sections of the ascending aorta were collected on coated glass slides until we were able to locate the most cranial portion of the aortic sinus by examining unstained sections. Once this section (No.1) was identified, the cranial 35 sections, covering 280 μm of the ascending aorta, were placed on separate slides for further evaluation. Every fifth section of the first 280 μm of the ascending aorta was stained with oil red O (Riedel de Haen, Germany) and counterstained with hemalaun (Merck, Darmstadt, Germany) end elastic van Gieson (Chrome-Gesellsohaft, Schmid GmbH, Köngen, Germany). Lesion area as well as intimal and medial area were blindly determined using a video-computer aided microscopy planimetry system (Zeiss, Oberkochen, Germany; Video Camera 3 CCD,
Sony; 40× lens magnification; IBAS-2 with IBAS Version 2.0 Standard, Kontron, München, Germany).
The number of lesions was counted as described previously by reviewing every fifth section. […] The number of lesions in each cross section was also counted. Size of the lesions was determined as length of lesion along the luminal aortic perimeter which was related to the total luminal aortic perimeter in the section.
The extent of neointimal proliferation was quantified by measuring the area (μm^2) of the neointima and the media in each ascending aorta from 3 sections (No.10, 20 and 30). In each section four sectors (at 0°, 90°; 180° and 270°) of the vessel wall were analyzed in a defined window of 63 μm×63 μm to measure neointimal area enclosed by the endothelial layer and internal elastic lamina and external elastic lamina. Ratio of neointimal to medial are ratio (NI/M) was averaged for each animal.

CD11b-positive monocytes = assay: Counting of CD11b-positive monocytes in aortic sections; type: in vivo, mouse
Description: (§4) Serial cryostate sections (8 μm) from the following 3 parts of the ascending aorta were chosen: 8-32 μm, 120-144 μm and 240-264 μm distal to the aortic sinus. The frozen sections were fixed in ice-cold acetone and dried for 10 minutes. Sections were then incubated for 10 minutes in a 1:1000 dilution of mouse serum (Sigma, St. Louis, Mo., USA). After rinsing with RPMI 1640 (Life Technologies, Paisley, Scotland), the sections were incubated for 40 minutes at room temperature with a 1:100 dilution of a monoclonal rat anti-mouse antibody against ICAM-1 (CF54) or VCAM-1 (CD106, Dianova GmbH, Hamburg, Germany). Detection of monocytes/macropheges was performed using monoclonal rat anti-mouse antibody CD11 b (MAC-1) (Serotec Ltd., Oxford, England).
(§5) After additional washing steps with TRIS buffer (USB, Cleveland, Ohio, USA) and incubation with a secondary antibody (AffiniPureMouse anti-ret IgG, Dianova, Germany) (1:400) for 10 minutes, followed by incubation with a linking antibody (Dualsystem-Brückenantikörper; Dianova, Hamburg, Germany) (1:600) for 10 minutes, the sections were incubated with an alkaline phosphatase anti-alkaline phosphatese complex (APAPP) (1:50; Dianova, Hamburg, Germany) for 30 minutes. The development of the sections was performed in neufuchsin developer solution. Sections were finally counterstained with hemalaun (Merck, Darmstadt, Germany) for 10 seconds. Control sections were treated with linking secondary antibody and APAAP complex only.
(§6) The intensity of staining with ICAM-1 and VCAM-1 was scored from 1 to 4 as follows: score 1=no staining, score 2=weak staining, score 3=moderate staining and score 4=strong staining of the vascular cells. The number of CD11b-positive cells was counted in each section, and the localization of the cells was classified as adherent to the wall, or localized in the intima or in the media.

ICAM-1 [2] = assay: Immunohistochemical staining of ICAM-1 in ascending aorta (APAAP method); type: in vivo, mouse; settings: for Endothelial expression of ICAM-1 in the aorta (words): mice on atherogenic diet treated with c^3Ado, FIG. 4
Description: as §4, §5, §6

[3] = biological target: adenosylhomocysteine hydrolase (Homo sapiens, UniProt P23526); settings: cited from earlier work
Sequence of adenosylhomocysteine hydrolase (P23526 whole entry): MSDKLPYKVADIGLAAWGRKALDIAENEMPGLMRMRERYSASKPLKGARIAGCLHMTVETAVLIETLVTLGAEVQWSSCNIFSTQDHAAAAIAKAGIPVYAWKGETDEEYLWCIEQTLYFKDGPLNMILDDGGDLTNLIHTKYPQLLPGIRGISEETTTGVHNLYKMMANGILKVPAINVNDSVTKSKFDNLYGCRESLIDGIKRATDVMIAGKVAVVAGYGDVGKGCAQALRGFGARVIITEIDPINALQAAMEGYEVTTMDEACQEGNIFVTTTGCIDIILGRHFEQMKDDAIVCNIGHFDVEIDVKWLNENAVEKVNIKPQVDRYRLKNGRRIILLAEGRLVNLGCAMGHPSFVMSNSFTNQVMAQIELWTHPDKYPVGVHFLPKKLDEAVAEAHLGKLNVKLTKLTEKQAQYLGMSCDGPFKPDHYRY

VCAM-1 [4] = assay: Immunohistochemical analysis of VCAM-1 in transplanted hearts; type: in vivo, rat; settings: heart allograft, day 120
Description: as §3
(§7) For immunohistochemical analysis of VCAM-1 and ICAM-1. two complete transverse sections of the transplanted heart approximately 3 mm in thickness were obtained and stored in optimum cutting temperature compound. Serial sections were cut and dipped in cold acetone for 10 minutes. The staining procedures were performed as described previously. The expression of the adhesion molecules was scored on the basis of endothelial cells and smooth muscle cells of epicardial arteries and intramyocardial aterioles. Analysis was done semiquantitatively by scoring the intensity of the staining and counting of the number of stained cells.

[5] = system: Lewis rats which received heterotopically transplanted hearts from Fisher rats; assay: Heterotopic heart allograft survival and rejection (Fisher to Lewis rats); type: in vivo, rat
Description: as §3, with “rejection.” for “rejection. All of the rats accepted cardiac allografts without any further treatment for the duration of observation.”

ICAM-1 [6] = assay: Immunohistochemical analysis of ICAM-1 in transplanted hearts; type: in vivo, rat; settings: heart allograft, day 120
Description: as §3, §7

endothelial cells = settings: in vitro, via selective inhibition of ICAM-1 synthesis; cited from earlier work
VCAM-1 [7] = assay: Immunohistochemical staining of VCAM-1 in ascending aorta (APAAP method); type: in vivo, mouse; settings: for Endothelial expression of VCAM-1 in the aorta (words): mice on atherogenic diet treated with c^3Ado, FIG. 4
Description: as §4, §5, §6

[8] = Total plasma cholesterol levels (CHOD-PAP method); type: in vivo, mouse; settings: atherogenic diet + c^3Ado 10 mg/kg/day oral, mean ± SEM
Description: Blood was collected via the tail vein from all mice after overnight fasting prior to initiation of the experiment, after 35 days feeding the different diets, and at time of death. Total plasma cholesterol levels were determined using the CHOD-PAP method (Boehringer Mannheim, Germany) as described previously (32).

[9] = mean ± SEM out of 3 sections per animal, 9 weeks atherogenic diet + c^3Ado
[10] = group 3, atherogenic diet + c^3Ado
[11] = score 1 = no staining to 4 = strong staining, endothelial, ascending aorta, 9 weeks, mean ± SEM

## Nc1nccc2c1ncn2[C@@H]1O[C@H](CO)[C@@H](O)[C@H]1O [c^3Ado, 3-deazaadenosine]
monocyte
  Monocyte chemotaxis and phagocytosis: inhibit
Body weight development
  Body weight day 65: 25.3 ± 0.2 g
[1]
  Intimal thickening of intramyocardial and epicardial arteries: almost no arterial intimal thickening
Female C57BL/J6 mice; fatty streak lesions, mean ± SEM from 7 sections per animal
  Number of lesions: 0 ± 0
Female C57BL/J6 mice; light micrographs, 200 μm cranial to aortic valve, FIG. 3
  Neointima in aortic cross sections: absent
Female C57BL/J6 mice; [9]
  Medial Area: 62.7 ± 2.5 × × 10^3 μm^2
  Neointimal area: 0.13 ± 0.03 × × 10^3 μm^2
Female C57BL/J6 mice; 9 weeks atherogenic diet + c^3Ado
  NI/M Ratio (neointimal to medial area ratio): 0.002 ± 0.0004
Female C57BL/J6 mice; 9 weeks atherogenic diet + c^3Ado, listed as c^aAdo
  NI/M Ratio (neointimal to medial area ratio): 0.002±0.0004
Female C57BL/J6 mice; oil red O staining, 7 frozen sections per animal
  Fatty streak lesions in sections of the ascending aorta: no detectable lesions
Female C57BL/J6 mice; proximal ascending aorta, planimetric analysis, atherogenic diet + c^3Ado, p<0.001
  Neointimal area: 125±32 μm^2
Female C57BL/J6 mice; vs atherogenic diet alone, p<0.001
  Neointimal thickness as NI/M, lower than in mice on atherogenic diet without c^3Ado: 94%
CD11b-positive monocytes; [10]
  Adherent CD11b-positive cells on the luminal surface: only a few adherent CD11b-positive cells
  CD11b-positive monocytic cells within the intima: no monocytic cells within the intima
CD11b-positive monocytes; mean ± SEM per section, 3 defined sections per animal, first of two columns with the same head (title: endothelial monocytes)
  Amount of intimal monocytes (first column of this head): 0.5 ± 0.2
CD11b-positive monocytes; mean ± SEM per section, 3 defined sections per animal, second of two columns with the same head
  Amount of intimal monocytes (second column of this head): 0 ± 0
ICAM-1 [2]
  Endothelial expression of ICAM-1 in the aorta (words): completely absent
ICAM-1 [2]; listed as 3-deazaadenosine
  Endothelial expression of ICAM-1 in the aorta (words): no endothelial expression
ICAM-1 [2]; [11]
  ICAM-1 expression score: 1.0 ± 0
[3]
  Effect on adenosylhomocysteine hydrolase: suppresses
VCAM-1 [4]
  VCAM-1 expression in the neointima of transplanted hearts: almost no expression
[5]; 10 mg/kg/day oral, 120 days
  Complications as a result of therapy: No complications
[5]; daily palpation, observation 120 days
  Graft survival (graft beat): kept beating for the duration of observation
[5]; heart allograft, 120 days
  Graft rejection: completely free from rejection
ICAM-1 [6]
  ICAM-1 expression in the neointima of transplanted hearts: almost no expression
Endothelial cells
  Tumor necrosis factor-a-induced macrophage adhesion to endothelial cells: reduces
VCAM-1 [7]
  Endothelial expression of VCAM-1 in the aorta (words): completely absent
VCAM-1 [7]; listed as 3-deazaadenosine
  Endothelial expression of VCAM-1 in the aorta (words): no endothelial expression
VCAM-1 [7]; [11]
  VCAM-1 expression score: 1.0 ± 0
[8]; day 35, plasma
  Total cholesterol day 35: 410 ± 19 mg/dL
[8]; day 65, plasma
  Total cholesterol day 65: 475 ± 10 mg/dL
